Source: patent US10011568B2, “Cyclohexyl pyridine derivative” (priority 2014, dated 2018)

What was measured:
human NK1 receptor [1] = target: T1, human NK1 receptor (Homo sapiens (Human), UniProt P25103); test: Affinity for human NK1 receptor (125I-substance P receptor binding test, membrane fraction); settings: membrane fraction of human NK1 receptor-expressing 293T cells; read-out: IC50 (nM), concentration required for 50% inhibition of 125I-substance P binding
Procedure: Affinity for Human NK1 Receptor
(3) Measurement of Binding Affinity to Human NK1 Receptor
(3-1) Preparation of Membrane Fraction from Human NK1 Receptor-Expressing Cells
Human NK1 receptor-expressing cells were prepared in a 175 cm^2 culture flask (Nippon Becton Dickinson). The formation of a complex of the human NK1 receptor expression plasmid and Lipofectamine 2000 was performed by calculating the culture area ratio and increasing the scale of the method described in the above 2-4 by the ratio. The human NK1 receptor-expressing cells were collected in a buffer solution for the membrane fraction preparation (50 mM Tris (Wako Pure Chemical), 120 mM sodium chloride (Wako Pure Chemical Industries), 5 mM potassium chloride (Wako Pure Chemical Industries), 1 mM ethylenediaminetetraacetic acid (Sigma), 0.002 mg/mL chymostatin (Peptide Institute), 0.04 mg/bacitracin (Wako Pure Chemical Industries), 0.005 mg/mL phosphoramidon (Peptide Institute) and 0.5 mM phenylmethylsulfonyl fluoride (Wako Pure Chemical Industries), pH7.4) and centrifuged at 1,880 g for 10 minutes, and the cell sediment was suspended in the buffer solution for the membrane fraction preparation. After freezing and thawing the cells once, the cells were homogenized using a Dounce-type homogenizer (cooled on ice, 1000 rpm, 20 times) The homogenized cell suspension was centrifuged at 20,000 rpm for 10 minutes, and the supernatant was removed to obtain cell sediment. The cell sediment was suspended again in the buffer solution for the membrane fraction preparation and homogenized using a Dounce-type homogenizer (cooled on ice, 1000 rpm, 30 times). The cell suspension was centrifuged at 20,000 rpm for 10 minutes, and the supernatant was removed to obtain cell sediment. The same homogenization and centrifugation were repeated again, and final cell sediment was obtained. The final cell sediment was suspended in a buffer solution for the receptor binding test (50 mM Tris (Wako Pure Chemical Industries). 3 mM manganese chloride (Wako Pure Chemical Industries), 0.002 mg/mL chymostatin (Peptide Institute), 0.04 mg/bacitracin (Wako Pure Chemical Industries) and 0.02% bovine serum albumin (Sigma), pH 7.4), and the protein concentration was measured using BCA Protein Assay Kit (Pierce).
(3-2) Receptor Binding Test
The buffer solution for the receptor binding test was dispensed to the wells of a 96-well assay plate (Greiner) at 22.5 μL/well. DMSO solutions of a test compound, which were prepared at an 80-time higher concentration using 100% dimethyl sulfoxide (DMSO), were added to the wells at 2.5 μL/well (final concentrations of 1 nM to 100 nM), and the solutions were mixed. As a radiolabeled ligand, ^125I-substance P (Substance P, [^125I]Tyr^8-, Perkin Elmer) was used. ^125I-substance P was diluted with the buffer solution for the receptor binding test to a concentration resulting in 125 pmol/25 μL/well and added to the 96-well assay plate, and the solutions were mixed. The membrane fraction prepared from the human NK1 receptor-expressing cells was diluted with the buffer solution for the receptor binding test to a concentration resulting in 8 to 10 μg/well, suspended until the suspension became in such a homogenous state that the suspension could flow through a 27G injection needle smoothly and then added to the 96-well assay plate at 150 μL/well. Then, the plate was incubated at room temperature for 60 minutes while shaking the plate. The reaction solutions were suction-filtered through a multiscreen 96-well filter plate (Millipore) which had been pre-treated with 0.3% polyethyleneimine, and the reaction was terminated by washing with a washing solution (50 mM Tris and 0.02% bovine serum albumin, pH 7.4) four times. The bottom of the microplate was dried at 60° C., and then 100 μL/well of MicroScint 20 (PerkinElmer) was dispensed to the wells. The top of the plate was sealed with TopSeal A (PerkinElmer), and the plate was shaken for 5 to 10 minutes. […]

human NK1 receptor [2] = target: T1, human NK1 receptor; test: Inhibitory effect on human NK1 receptor (substance P-induced increase in intracellular calcium concentration); type: cell-based; settings: substance P 1 μM, compound 0.1 μM; read-out: SPRR (%), Substance P-Response Remaining (intracellular calcium concentration)
Procedure: Inhibitory Effect on Human NK1 Receptor
(1) Preparation of Human NK1 Receptor-Expressing Cells
Human NK1 receptor-expressing cells were prepared by the same methods as those described in 2-3 of Test Example 1.
(2) Study on Inhibitory Effect on Increase in Intracellular Calcium Concentration
The human NK1 receptor-expressing cells were washed with 300 μL/well of a washing solution (20 mM HEPES/Hank's Balanced Salt Solution (HBSS) pH 7.3). A fluorescent calcium indicator (Fluo-4 Direct Calcium Assay Kit, Life Technologies, containing 0.42 mM probenecid and 0.1% bovine serum albumin, prepared according to the protocol of the product) was added to the wells at 150 μL/well, and the plate was incubated at 37° C. for 30 minutes in an incubator. Then. DMSO solutions of a test compound, which were prepared at an 80-time higher concentration using 100% dimethyl sulfoxide (DMSO), were added to the wells at 2.5 μL/well (final concentrations of 0.1, 1 and 10 μM), and the solutions were mixed. Then, the plate was further incubated at […] for 30 minutes in an incubator. After 30 minutes, the intracellular calcium concentrations were measured immediately.
The intracellular calcium concentrations were each measured as a fluorescent signal using FDSS (registered trademark) 7000 (Hamamatsu Photonics). A substance P (Peptide Institute. Inc.) solution which was prepared at 0.4 μM or 4 μM using an assay buffer (20 mM HEPES/Hank's Balanced Salt Solution (HBSS) pH 7.3, containing 0.1% bovine serum albumin) was added automatically to each well at 50 μL/well (final concentration of 0.1 or 1 μM) 10 seconds after starting reading, and the fluorescent signal was measured up to 120 seconds.
The intracellular calcium concentration (%) of the cells to which a test compound was added was calculated by the equation below, where the fluorescent signal of the group to which the vehicle (DMSO) was added was regarded as 100%, and the fluorescent signal before the addition of substance P was regarded as 0%. Intracellular calcium concentration (%)—(Fluorescent signal of test compound addition group)/(Fluorescent signal of vehicle addition group)×100
The intracellular calcium concentration (%) calculated was regarded as the remaining agonist activity of substance P (Substance P-Response Remaining: SPRR). In the table, Ex. No. means the Example number. SPRR (%) is the value obtained when the concentration of substance P was 1 μM and the concentration of the compound was 0.1 μM.

T1 sequence (P25103 whole entry): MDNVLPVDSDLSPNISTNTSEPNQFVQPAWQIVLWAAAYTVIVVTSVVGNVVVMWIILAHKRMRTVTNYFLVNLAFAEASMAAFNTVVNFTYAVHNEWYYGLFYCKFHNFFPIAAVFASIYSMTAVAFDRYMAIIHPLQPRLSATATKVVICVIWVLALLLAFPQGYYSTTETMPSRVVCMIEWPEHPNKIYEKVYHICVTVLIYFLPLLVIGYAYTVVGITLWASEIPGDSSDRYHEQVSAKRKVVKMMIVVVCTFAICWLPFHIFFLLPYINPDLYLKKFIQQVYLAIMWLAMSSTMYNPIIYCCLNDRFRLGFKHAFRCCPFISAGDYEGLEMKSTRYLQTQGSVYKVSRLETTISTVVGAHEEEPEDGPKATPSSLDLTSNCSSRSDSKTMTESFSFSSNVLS

SMILES	IC50 (human NK1 receptor [1]) [nM]	remaining activity at 0.1 µM (human NK1 receptor [2]) [%]
Cc1cc(F)ccc1-c1cc(C2CCC(C(=O)O)CC2)ncc1N(C)C(=O)C(C)(C)c1cc(C(F)(F)F)cc(C(F)(F)F)c1 (centres unmarked) [Example 1, 4-[5-{[2-(3,5-Bistrifluoromethylphenyl)-2-methylpropionyl]methylamino}-4-(4-fluoro-2-methylphenyl)pyridin-2-yl]cyclohexanecarboxylic Acid]	1.45	20
Cc1cc(F)ccc1-c1cc(C2CCCC(CC(=O)O)C2)ncc1N(C)C(=O)C(C)(C)c1cc(C(F)(F)F)cc(C(F)(F)F)c1 (centres unmarked) [Example 3, {3-[5-{[2-(3,5-Bistrifluoromethylphenyl)-2-methylpropionyl]methylamino}-4-(4-fluoro-2-methylphenyl)pyridin-2-yl]cyclohexyl}acetic Acid]	2.1	36
Cc1cc(F)ccc1-c1cc(C2(C)CCCC(CC(=O)O)C2)ncc1N(C)C(=O)C(C)(C)c1cc(C(F)(F)F)cc(C(F)(F)F)c1 (centres unmarked) [Example 4, {3-[5-{[2-(3,5-Bistrifluoromethylphenyl)-2-methylpropionyl]methylamino}-4-(4-fluoro-2-methylphenyl)pyridin-2-yl]-3-methylcyclohexyl}acetic Acid]	2.35	57
Cc1cc(F)ccc1-c1cc(C2CCC3(CC2)CC3C(=O)O)ncc1N(C)C(=O)C(C)(C)c1cc(C(F)(F)F)cc(C(F)(F)F)c1 (centres unmarked) [Example 7, 6-[5-{[2-(3,5-Bistrifluoromethylphenyl)-2-methylpropionyl]methylamino}-4-(4-fluoro-2-methylphenyl)pyridin-2-yl]spiro[2.5]octane-1-carboxylic Acid]	1.63	9.4
Cc1cc(F)ccc1-c1cc(C2CCC(CC(=O)O)CC2)nc(C#N)c1N(C)C(=O)C(C)(C)c1cc(C(F)(F)F)cc(C(F)(F)F)c1 (centres unmarked) [Example 8, {4-[5-{[2-(3,5-Bistrifluoromethylphenyl)-2-methylpropionyl]methylamino}-6-cyano-4-(4-fluoro-2-methylphenyl)pyridin-2-yl]cyclohexyl}acetic Acid]	4.01	31
Cc1ccccc1-c1cc(C2CCC(CC(=O)O)CC2)ncc1N(C)C(=O)C(C)(C)c1cc(C(F)(F)F)cc(C(F)(F)F)c1 (centres unmarked) [Example 9, {4-[5-{[2-(3,5-Bistrifluoromethylphenyl)-2-methylpropionyl]methylamino}-4-ortho-tolylpyridine-yl]-cyclohexyl}acetic Acid]	2.35	42
Cc1cc(F)ccc1-c1cc(C2CCC(C(C)C(=O)O)CC2)ncc1N(C)C(=O)C(C)(C)c1cc(C(F)(F)F)cc(C(F)(F)F)c1 (centres unmarked) [Example 10, 2-{4-[5-{[2-(3,5-Bistrifluoromethylphenyl)-2-methylpropionyl]methylamino}-4-(4-fluoro-2-methylphenyl)pyridin-2-yl]cyclohexyl}propionic Acid]	2.79	8.6
Cc1cc(F)ccc1-c1cc([C@H]2CC[C@H](C(C)(C)C(=O)O)CC2)ncc1N(C)C(=O)C(C)(C)c1cc(C(F)(F)F)cc(C(F)(F)F)c1 [Example 11, trans-2-{4-[5-{[2-(3,5-Bistrifluoromethylphenyl)-2-methylpropionyl]methylamino}-4-(4-fluoro-2-methylphenyl)pyridin-2-yl]cyclohexyl}-2-methylpropionic Acid]	6.75	5.4
Cc1cc(F)ccc1-c1cc([C@H]2CC[C@H](CC(=O)O)CC2)ncc1N(C)C(=O)C(C)(C)c1cc(C(F)(F)F)cc(C(F)(F)F)c1 [Example 13, trans-{4-[5-{[2-(3,5-Bistrifluoromethylphenyl)-2-methylpropionyl]methylamino}-4-(4-fluoro-2-methylphenyl)pyridin-2-yl]cyclohexyl}acetic acid]	1.62	5.1
Cc1cc(F)ccc1-c1cc([C@H]2CC[C@@H](CC(=O)O)CC2)ncc1N(C)C(=O)C(C)(C)c1cc(C(F)(F)F)cc(C(F)(F)F)c1 [Example 14, cis-{4-[5-{[2-(3,5-bistrifluoromethylphenyl)-2-methylpropionyl]methylamino}-4-(4-fluoro-2-methylphenyl)pyridin-2-yl]cyclohexyl}acetic acid]	2.21	22
Cc1ccccc1-c1cc(C2CCC(CC(=O)O)CC2)nc(C#N)c1N(C)C(=O)C(C)(C)c1cc(C(F)(F)F)cc(C(F)(F)F)c1 (centres unmarked) [Example 16, [4-(5-{[2-(3,5-Bistrifluoromethylphenyl)-2-methylpropionyl]methylamino}-6-cyano-4-ortho-tolylpyridin-2-yl)cyclohexyl]acetic Acid]	2.78	37
Cc1cc(F)ccc1-c1cc([C@H]2CC[C@H](CC(=O)O)CC2)nc(C#N)c1N(C)C(=O)C(C)(C)c1cc(C(F)(F)F)cc(C(F)(F)F)c1 [Example 20, trans-{4-[5-{[2-(3,5-Bistrifluoromethylphenyl)-2-methylpropionyl]methylamino}-6-cyano--4-(4-fluoro-2-methylphenyl)-pyridin-2-yl]cyclohexyl}acetic acid]	3.27	2.8
Cc1cc(F)ccc1-c1cc([C@H]2CC[C@@H](CC(=O)O)CC2)nc(C#N)c1N(C)C(=O)C(C)(C)c1cc(C(F)(F)F)cc(C(F)(F)F)c1 [Example 21, cis-{4-[5-{[2-(3,5-bistrifluoromethylphenyl)-2-methylpropionyl]methylamino}-6-cyano-4-(4-fluoro-2-methylphenyl)pyridin-2-yl]cyclohexyl}acetic acid]	2.36	36
